Results on 29 compounds are retold here after publication PMC7587356, “High-Throughput Screening for Inhibitors of the SARS-CoV-2 Protease Using a FRET-Biosensor” (Molecules, 2020).

The test has as its target SARS-CoV-2 3CLpro (Severe acute respiratory syndrome coronavirus 2, UniProt P0DTD1). Description: biochemical. The test is classed as biochemical. The arrangement: Replicate_1 / Replicate_2 / mean / mean (LOPAC_screen_w_protease): unit not given here. The following applies: for inhibition at 5 µM: 4 h.
The mark [1] stands for this setting: sheet LOPAC_screen_w_protease, primary screen with protease, compound at 5 µM, mean of two replicates.
Setting [2] is: sheet LOPAC_screen_w_protease, primary screen with protease, compound at 5 µM, replicate 1.
The mark [3] stands for this setting: sheet LOPAC_screen_w_protease, primary screen with protease, compound at 5 µM, replicate 2.
Setting [4] is: LOPAC1280 primary screen with protease, 5 µM compound, replicate 1, read-out: Replicate_1 (LOPAC_screen_w_protease).
[5] abbreviates: LOPAC1280 primary screen with protease, 5 µM compound, replicate 2, read-out: Replicate_2 (LOPAC_screen_w_protease).
Where [6] appears, read: LOPAC1280 primary screen with protease, 5 µM compound, mean of the two replicates.
The mark [7] stands for this setting: sheet LOPAC_screen_w_protease, primary screen with protease, mean of two replicates.
[8] abbreviates: sheet LOPAC_screen_w_protease, primary screen with protease, replicate 1.
Setting [9] is: sheet LOPAC_screen_w_protease, primary screen with protease, replicate 2.
[10] abbreviates: sheet LOPAC_screen_w_protease, primary screen of LOPAC1280 at 5 µM with protease, mean of the two replicates.
Setting [11] is: sheet LOPAC_screen_w_protease, primary screen of LOPAC1280 at 5 µM with protease, replicate 1.
Where [12] appears, read: sheet LOPAC_screen_w_protease, primary screen of LOPAC1280 at 5 µM with protease, replicate 2.
The mark [13] stands for this setting: sheet LOPAC_screen_w_protease, primary screen with protease, compound at 5 µM, mean of two replicates, read-out: mean.
[14] abbreviates: sheet LOPAC_screen_w_protease, primary screen with protease, compound at 5 µM, replicate 1, read-out: Replicate_1.
Setting [15] is: sheet LOPAC_screen_w_protease, primary screen with protease, compound at 5 µM, replicate 2, read-out: Replicate_2.
The mark [16] stands for this setting: sheet LOPAC_screen_w_protease, primary screen with protease, mean of two replicates, read-out: mean.
Where [17] appears, read: sheet LOPAC_screen_w_protease, primary screen with protease, replicate 1, read-out: Replicate_1.
[18] abbreviates: sheet LOPAC_screen_w_protease, primary screen with protease, replicate 2, read-out: Replicate_2.
[19] abbreviates: sheet LOPAC_screen_w_protease, primary screen with protease, 5 µM, replicate 1, read-out: Replicate_1.
Setting [20] is: sheet LOPAC_screen_w_protease, primary screen with protease, 5 µM, replicate 2, read-out: Replicate_2.

SMILES strings stand for the structures. Counter-ions that a name gives are not always drawn. Like-named read-outs stand apart in the source and are kept apart here.

`[N-]=[N+]=Nc1ccc(C(=O)CSC[C@H](NC(=O)CC[C@H](N)C(=O)O)C(=O)NCC(=O)O)cc1` [S-(p-Azidophenacyl)glutathione] came in with a mean under setting [1] of 2.647. The compound also returned a Replicate_1 under setting [2] of 2.672. Further, under setting [3], the Replicate_2 worked out at 2.621.

As for `CC1(C(=O)O)C2CCC(O2)C1(C)C(=O)O` (centres unmarked) [Cantharidic Acid], the inhibition at 5 µM under setting [4] worked out at 2.04% and the inhibition at 5 µM under setting [5] was 1.78%. Moreover, the “mean (LOPAC_screen_w_protease)” value under setting [6] is listed as 1.914.

`COc1cc(/C=C(\C#N)C(=O)c2ccc(O)c(O)c2)cc(I)c1O` [I-OMe-Tyrphostin AG 538] displayed a mean under setting [1] of 2.606. This compound also returned a Replicate_1 under setting [2] of 2.231. This compound had a Replicate_2 under setting [3] of 2.982.

As to `COc1cccc(NC(=O)/C=C/c2ccc(Cl)cc2)c1` [SB-366791], the mean under setting [7] was determined as 2.336. Besides, the Replicate_1 under setting [8] worked out at 3.003. The same compound gave a Replicate_2 under setting [9] of 1.669.

As for `OC[C@H]1O[C@@H](n2cnc3c(Nc4ccccc4)ncnc32)[C@H](O)[C@@H]1O` [N6-Phenyladenosine], the inhibition at 5 µM runs as follows: under setting [4], 2.83%; under setting [5], 0.0632%. Moreover, the “mean (LOPAC_screen_w_protease)” value (LOPAC1280 primary screen with protease, 5 µM compound, mean of two replicates) is reported as 1.447.

`Br.Br.N=C(N)SCCN`: the “mean (LOPAC_screen_w_protease)” value under setting [6] was 2.032. The “Replicate_1 (LOPAC_screen_w_protease)” value (LOPAC1280 primary screen with protease, 5 µM compound, replicate 1) was 2.956. For the same compound, the “Replicate_2 (LOPAC_screen_w_protease)” value (LOPAC1280 primary screen with protease, 5 µM compound, replicate 2) is 1.108.

`CS(=O)(=O)O.Cc1c(C(=O)c2cccc3ccccc23)c2cccc3c2n1[C@H](CN1CCOCC1)CO3` [(R)-(+)-WIN 55,212-2 mesylate]: the mean (sheet LOPAC_screen_w_protease, primary screen with protease, 5 µM, mean of two replicates) was -0.1611. Further, the Replicate_1 (sheet LOPAC_screen_w_protease, primary screen with protease, 5 µM, replicate 1) is recorded as -0.3938. Also, the Replicate_2 (sheet LOPAC_screen_w_protease, primary screen with protease, 5 µM, replicate 2) worked out at 0.07161.

`COc1ccc(Cc2nccc3cc(OC)c(OC)cc23)cc1OC` [Papaverine hydrochloride]: the inhibition at 5 µM is 5.63% (sheet LOPAC_screen_w_protease, LOPAC1280 primary screen with protease, 5 µM compound, mean of the two replicates, read-out: mean); 5.9% (sheet LOPAC_screen_w_protease, LOPAC1280 primary screen with protease, 5 µM compound, replicate 1, read-out: Replicate_1); 5.37% (sheet LOPAC_screen_w_protease, LOPAC1280 primary screen with protease, 5 µM compound, replicate 2, read-out: Replicate_2).

As to `NC1(C(=O)O)CCc2cc(C(=O)O)ccc21` (centres unmarked) [AIDA], the mean under setting [10] came to 3.327. Further, under setting [11], the Replicate_1 was 3.929. This compound registered a Replicate_2 under setting [12] of 2.7246.

Turning to `CN1C(C(=O)Nc2ccccn2)=C(O)c2ccccc2S1(=O)=O` [Piroxicam], the inhibition at 5 µM runs as follows: under setting [13], 3.01%; under setting [14], 1.9%; under setting [15], 4.12%.

In turn, `CCN(CC)C(=O)c1ccc(O)c(OC)c1` [Vanillic acid diethylamide] showed a mean (sheet LOPAC_screen_w_protease, LOPAC1280 at 5 µM, mean of two replicates) of 0.9703. This compound had a Replicate_1 (sheet LOPAC_screen_w_protease, LOPAC1280 at 5 µM, replicate 1) of 1.198. Under “sheet LOPAC_screen_w_protease, LOPAC1280 at 5 µM, replicate 2”, this compound showed a Replicate_2 of 0.7424.

Turning to `Cc1cc(N)c2ccccc2[n+]1CCCCCCCCCC[n+]1c(C)cc(N)c2ccccc21` [Dequalinium dichloride], the inhibition at 5 µM by setting is: (read-out: Replicate_1) 2.94%; (read-out: Replicate_2) 1.41%; (read-out: mean) 2.17%.

Take `C[N+](C)(C)CC#CCN1CCCC1=O` [Oxotremorine methiodide]: the inhibition at 5 µM was 7.27% (sheet LOPAC_screen_w_protease, primary screen at 5 µM, mean of two replicates, read-out: mean (LOPAC screen with protease)); 7.16% (sheet LOPAC_screen_w_protease, primary screen at 5 µM, replicate 1, read-out: Replicate_1 (LOPAC screen with protease)); 7.38% (sheet LOPAC_screen_w_protease, primary screen at 5 µM, replicate 2, read-out: Replicate_2 (LOPAC screen with protease)).

Consider `O=S(=O)(O)C1CCNCC1` [Piperidine-4-sulphonic acid], for which the mean (sheet LOPAC_screen_w_protease, LOPAC1280 primary screen with protease, 5 µM compound, mean of the two replicates) was determined as 4.585. For the same compound, the Replicate_1 (sheet LOPAC_screen_w_protease, LOPAC1280 primary screen with protease, 5 µM compound, replicate 1) amounted to 5.428. Under “sheet LOPAC_screen_w_protease, LOPAC1280 primary screen with protease, 5 µM compound, replicate 2”, this compound had a Replicate_2 of 3.743.

Turning to `C[C@@H](N)Cc1cnc[nH]1.Cl.Cl`, the Replicate_1 stood at 2.14, the Replicate_2 is recorded as -0.08051 and the mean is 1.03.

On to `NS(=O)(=O)Cc1noc2ccccc12` [Zonisamide sodium], for which the inhibition at 5 µM by setting is: (sheet LOPAC_screen_w_protease, LOPAC1280 primary screen at 5 µM, with protease, mean of the two replicates, read-out: mean) 0.586%; (sheet LOPAC_screen_w_protease, LOPAC1280 primary screen at 5 µM, with protease, replicate 1, read-out: Replicate_1) -0.00469%; (sheet LOPAC_screen_w_protease, LOPAC1280 primary screen at 5 µM, with protease, replicate 2, read-out: Replicate_2) 1.18%.

`COc1ccc2c(c1)c(CC(=O)O)c(C)n2C(=O)c1ccc(Cl)cc1` [Indomethacin] returned a Replicate_1 of 3.273, a Replicate_2 of 1.395 and a mean of 2.334.

Under setting [7], `Cl.N=C(N)NN` [Aminoguanidine hydrochloride] yielded a mean of 2.381. The same compound registered a Replicate_1 under setting [8] of 2.212. Under setting [9], this compound showed a Replicate_2 of 2.55.

Take `CN1CCN(CCCN2c3ccccc3Sc3ccc(Cl)cc32)CC1` [Prochlorperazine dimaleate]: the inhibition at 5 µM was found to be 2.43% under setting [16], 4.42% under setting [17] and 0.439% under setting [18].

For `CC(=N)NCCCC[C@H](N)C(=O)O.Cl` [L-N6-(1-Iminoethyl)lysine hydrochloride], the mean under setting [7] is on record as 2.233. The compound further showed a Replicate_1 under setting [8] of 3.474. Under setting [9], this compound yielded a Replicate_2 of 0.9911.

Consider `CC(=O)Nc1nnc(S(N)(=O)=O)s1` [Acetazolamide], for which the inhibition at 5 µM under setting [19] was determined as 0.216% and the inhibition at 5 µM under setting [20] was -0.714%.

On to `Nc1nc2[nH]c(=O)cnc2c(=O)[nH]1` [Isoxanthopterin], for which the inhibition at 5 µM under setting [16] stood at 2.42%, the inhibition at 5 µM under setting [17] turned out to be 3.73% and the inhibition at 5 µM under setting [18] was 1.11%.

On to `Fc1ccc(C(c2ccc(F)cc2)N2CCN(C/C=C/c3ccccc3)CC2)cc1` [Flunarizine dihydrochloride], for which the inhibition at 5 µM under setting [13] turned out to be 2.85%, the inhibition at 5 µM under setting [14] came out at 3.4% and the inhibition at 5 µM under setting [15] came to 2.29%.

`Nc1ncnc2c1ncn2[C@@H]1O[C@H](CO)[C@@H](O)[C@H]1O` [Adenosine]: the inhibition at 5 µM is, setting by setting: (read-out: Replicate_1) 1.26%; (read-out: Replicate_2) 3.55%; (read-out: mean) 2.4%.

In the case of `C[C@H](O)[C@H](O)[C@H]1CNc2nc(N)[nH]c(=O)c2N1.Cl`, the mean under setting [1] is recorded as 3.136. The same compound displayed a Replicate_1 under setting [2] of 3.694. Also, the Replicate_2 under setting [3] came out at 2.577.

As for `CCCC(C(=O)OCCN(CC)CC)(c1ccccc1)c1ccccc1.Cl` [SKF-525A hydrochloride], the mean under setting [10] was determined as 3.89. Besides, under setting [11], the Replicate_1 worked out at 3.162. The compound also registered a Replicate_2 under setting [12] of 4.618.

Take `COC(=O)C(N)Cc1ccc(Cl)cc1.Cl` (racemic): the mean (sheet LOPAC_screen_w_protease, LOPAC1280 primary screen at 5 µM, with protease, mean of the two replicates) is reported as 0.6507. Besides, the Replicate_1 (sheet LOPAC_screen_w_protease, LOPAC1280 primary screen at 5 µM, with protease, replicate 1) was 2.428. In addition, under “sheet LOPAC_screen_w_protease, LOPAC1280 primary screen at 5 µM, with protease, replicate 2”, the Replicate_2 is listed as -1.1263.

On to `CC(=O)O[C@]1(C(C)=O)CC[C@H]2[C@@H]3C=C(Cl)C4=CC(=O)[C@@H]5C[C@@H]5[C@]4(C)[C@H]3CC[C@@]21C` [Cyproterone acetate], for which the inhibition at 5 µM (sheet LOPAC_screen_w_protease, primary screen with protease, 5 µM, mean of two replicates, read-out: mean) was -0.427%; the inhibition at 5 µM under setting [19] worked out at 1.58%; the inhibition at 5 µM under setting [20] was -2.43%.

Regarding `CN(C)C(=O)N=NC(=O)N(C)C` [N,N,N',N'-Tetramethylazodicarboxamide], the “mean (LOPAC screen with protease)” value (sheet LOPAC_screen_w_protease, primary screen at 5 µM, mean of two replicates) was 22.0405. Further, the “Replicate_1 (LOPAC screen with protease)” value (sheet LOPAC_screen_w_protease, primary screen at 5 µM, replicate 1) was found to be 23.2519. Under “sheet LOPAC_screen_w_protease, primary screen at 5 µM, replicate 2”, the “Replicate_2 (LOPAC screen with protease)” value is reported as 20.8292.
